≈ marks a conversion by molar mass, not a printed value. Each block holds one compound with its values, some of them ahead of it.
Legend:
Type in all cases: cell-based
[1] = tested on: Streptococcus pneumoniae; assay: MIC assay, concentration gradient agar strip method
From the text: (§1) Combination of the pre-fabricated antimicrobial drug and pre-fabricated culture medium to form a test strip unit: the films are removed from the bottom and top of the culture medium container, and the cells of the culture medium container can be inserted into the corresponding cells of the drug container. Then, the drug container is covered with a lid, and the pressure created in the process causes the antimicrobial drug at the bottoms of the cells to come into contact with the solid culture medium, and therefore dissolved in the agar culture medium to reach a specific concentration. To use the solid culture medium, a bacterial culture solution can be applied on the upper surface of the solid culture medium in each cell of the culture medium container. Then the culture medium container is covered with a lid, and then kept at 35° C. for 16-20 hours before the culture result is visually checked. When the drug concentration is higher than the MIC for the bacteria, no bacteria is observed on the surface of the gel. When the drug concentration is lower than the MIC, the bacteria grows on the surface of the culture medium and eventually develops a bacterial colony thereon. The lowest drug concentration at which no bacteria is observed on the gel surface is considered as the MIC of the antimicrobial drug for the strain under test.
(§2) This embodiment still uses a drug container with 12 round cells, and each round cell has internal dimensions of 4 mm×6 mm (bottom's radius×height). However, the experimental strains in use are Streptococcus pneumoniae. […] The bacterial lawn on the drug-free control agar blocks is expected to grow well; and • 8) performing an MIC assay on the test strains with the tube broth dilution method.

[2] = tested on: Streptococcus pneumoniae; assay: MIC assay, tube broth dilution method; conditions: read-out: MIC, Concentration (tube broth dilution method)
From the text: as §2

[3] = tested on: Enterobacter cloacae; assay: MIC assay, concentration gradient agar strip method
From the text: as §1
(§3) A concentration gradient measurement method for use in bacterial/fungal drug susceptibility testing is provided. […] The bacterial lawn on the drug-free control agar blocks is expected to grow well; and • 8) in the meantime, performing an MIC assay on the test strains with tube broth dilution method.

[4] = tested on: Escherichia coli; assay: as above
From the text: as §1, §3

[5] = tested on: Klebsiella oxytoca; assay: as above
From the text: as §1, §3

[6] = tested on: Klebsiella pneumoniae; assay: as above
From the text: as §1, §3

[7] = tested on: Proteus mirabilis; assay: as above; conditions: Strain No. 27 Proteus mirabilis
From the text: as §1, §3

[8] = tested on: Enterobacter cloacae; assay: MIC assay, tube broth dilution method
From the text: as §3

[9] = tested on: Escherichia coli; assay: MIC assay, tube broth dilution method; conditions: read-out: MIC, Concentration (tube broth dilution method)
From the text: as §3

[10] = tested on: Klebsiella oxytoca; assay: MIC assay, tube broth dilution method
From the text: as §3

[11] = tested on: Klebsiella pneumoniae; assay: MIC assay, tube broth dilution method; conditions: read-out: MIC, Concentration (tube broth dilution method)
From the text: as §3

[12] = tested on: Proteus mirabilis; assay: MIC assay, tube broth dilution method; conditions: Strain No. 27 Proteus mirabilis; read-out: MIC, Concentration (tube broth dilution method)
From the text: as §3

[13] = Strain No. 1 Streptococcus pneumoniae
[14] = Strain No. 2 Streptococcus pneumoniae
[15] = Strain No. 3 Streptococcus pneumoniae
[16] = Strain No. 4 Streptococcus pneumoniae
[17] = Strain No. 5 Streptococcus pneumoniae
[18] = Strain No. 6 Streptococcus pneumoniae
[19] = Strain No. 7 Streptococcus pneumoniae
[20] = Strain No. 8 Streptococcus pneumoniae
[21] = Strain No. 9 Streptococcus pneumoniae
[22] = Strain No. 10 Streptococcus pneumoniae
[23] = Strain No. 11 Streptococcus pneumoniae
[24] = Strain No. 12 Streptococcus pneumoniae
[25] = Strain No. 13 Streptococcus pneumoniae
[26] = Strain No. 14 Streptococcus pneumoniae
[27] = Strain No. 15 Streptococcus pneumoniae
[28] = Strain No. 16 Streptococcus pneumoniae
[29] = Strain No. 17 Streptococcus pneumoniae
[30] = Strain No. 18 Streptococcus pneumoniae
[31] = Strain No. 19 Streptococcus pneumoniae
[32] = Strain No. 20 Streptococcus pneumoniae
[33] = Strain No. 29 Enterobacter cloacae
[34] = Strain No. 25 Klebsiella oxytoca
[35] = Strain No. 1 Klebsiella pneumoniae
[36] = Strain No. 2 Klebsiella pneumoniae
[37] = Strain No. 3 Klebsiella pneumoniae
[38] = Strain No. 4 Klebsiella pneumoniae
[39] = Strain No. 5 Klebsiella pneumoniae
[40] = Strain No. 6 Klebsiella pneumoniae
[41] = Strain No. 7 Klebsiella pneumoniae
[42] = Strain No. 8 Klebsiella pneumoniae
[43] = Strain No. 18 Klebsiella pneumoniae
[44] = Strain No. 21 Klebsiella pneumoniae
[45] = Strain No. 24 Klebsiella pneumoniae

MIC [1, 13]: 0.12 µg/mL
MIC [1, 14]: 0.12 µg/mL
MIC [1, 15]: 0.25 µg/mL
MIC [1, 16]: 0.25 µg/mL
MIC [1, 17]: 0.5 µg/mL
MIC [1, 18]: 0.12 µg/mL
MIC [1, 19]: 0.25 µg/mL
MIC [1, 20]: 1 µg/mL
MIC [1, 21]: 0.25 µg/mL
MIC [1, 22]: 2 µg/mL
MIC [1, 23]: 0.12 µg/mL
MIC [1, 24]: 0.06 µg/mL
MIC [1, 25]: 0.06 µg/mL
MIC [1, 26]: 2 µg/mL
MIC [1, 27]: 0.12 µg/mL
MIC [1, 28]: 0.12 µg/mL
MIC [1, 29]: 1 µg/mL
MIC [1, 30]: 0.5 µg/mL
MIC [1, 31]: 0.25 µg/mL
MIC [1, 32]: 0.12 µg/mL
MIC [2, 13]: 0.12 µg/mL (≈ 0.328 µM)
MIC [2, 14]: 0.12 µg/mL (≈ 0.328 µM)
MIC [2, 15]: 0.12 µg/mL (≈ 0.328 µM)
MIC [2, 16]: 0.25 µg/mL (≈ 0.684 µM)
MIC [2, 17]: 0.5 µg/mL (≈ 1.37 µM)
MIC [2, 18]: 0.12 µg/mL (≈ 0.328 µM)
MIC [2, 19]: 0.25 µg/mL (≈ 0.684 µM)
MIC [2, 20]: 0.5 µg/mL (≈ 1.37 µM)
MIC [2, 21]: 0.25 µg/mL (≈ 0.684 µM)
MIC [2, 22]: 2 µg/mL (≈ 5.47 µM)
MIC [2, 23]: 0.12 µg/mL (≈ 0.328 µM)
MIC [2, 24]: 0.06 µg/mL (≈ 0.164 µM)
MIC [2, 25]: 0.12 µg/mL (≈ 0.328 µM)
MIC [2, 26]: 2 µg/mL (≈ 5.47 µM)
MIC [2, 27]: 0.12 µg/mL (≈ 0.328 µM)
MIC [2, 28]: 0.12 µg/mL (≈ 0.328 µM)
MIC [2, 29]: 1 µg/mL (≈ 2.74 µM)
MIC [2, 30]: 1 µg/mL (≈ 2.74 µM)
MIC [2, 31]: 0.12 µg/mL (≈ 0.328 µM)
MIC [2, 32]: 0.12 µg/mL (≈ 0.328 µM)
SMILES: CC1(C)S[C@@H]2[C@H](NC(=O)[C@H](N)c3ccc(O)cc3)C(=O)N2[C@H]1C(=O)O [Amoxicillin]

MIC ([3]; Strain No. 28 Enterobacter cloacae): 16 µg/mL
MIC, Concentration (gradient agar strip method) [3, 33]: 16.0 µg/mL
MIC ([4]; Strain No. 9 Escherichia coli): 8 µg/mL
MIC ([4]; Strain No. 10 Escherichia coli): 1 µg/mL
MIC ([4]; Strain No. 11 Escherichia coli): 2 µg/mL
MIC ([4]; Strain No. 12 Escherichia coli): 4 µg/mL
MIC ([4]; Strain No. 13 Escherichia coli): 4 µg/mL
MIC ([4]; Strain No. 14 Escherichia coli): 8 µg/mL
MIC ([4]; Strain No. 15 Escherichia coli): 2 µg/mL
MIC ([4]; Strain No. 16 Escherichia coli): 4 µg/mL
MIC ([4]; Strain No. 17 Escherichia coli): 4 µg/mL
MIC ([4]; Strain No. 19 Escherichia coli): 16 µg/mL
MIC ([4]; Strain No. 20 Escherichia coli): 4 µg/mL
MIC ([4]; Strain No. 23 Escherichia coli): 8 µg/mL
MIC ([4]; Strain No. 26 Escherichia coli): 4 µg/mL
MIC ([4]; Strain No. 30 Escherichia coli): 8 µg/mL
MIC ([5]; Strain No. 22 Klebsiella oxytoca): 8 µg/mL
MIC, Concentration (gradient agar strip method) [5, 34]: 8.0 µg/mL
MIC [6, 35]: 4 µg/mL
MIC [6, 36]: 4 µg/mL
MIC [6, 37]: 4 µg/mL
MIC [6, 38]: 2 µg/mL
MIC [6, 39]: 2 µg/mL
MIC [6, 40]: 4 µg/mL
MIC [6, 41]: 8 µg/mL
MIC [6, 42]: 4 µg/mL
MIC [6, 43]: 16 µg/mL
MIC [6, 44]: 8 µg/mL
MIC [6, 45]: 4 µg/mL
MIC [7]: 8 µg/mL
MIC ([8]; Strain No. 28 Enterobacter cloacae, read-out: MIC, Concentration (tube broth dilution method)): 16 µg/mL (≈ 35.1 µM)
MIC, Concentration (tube broth dilution method) [8, 33]: 16.0 µg/mL (≈ 35.1 µM)
MIC ([9]; Strain No. 9 Escherichia coli): 8 µg/mL (≈ 17.6 µM)
MIC ([9]; Strain No. 10 Escherichia coli): 1 µg/mL (≈ 2.2 µM)
MIC ([9]; Strain No. 11 Escherichia coli): 4 µg/mL (≈ 8.78 µM)
MIC ([9]; Strain No. 12 Escherichia coli): 4 µg/mL (≈ 8.78 µM)
MIC ([9]; Strain No. 13 Escherichia coli): 4 µg/mL (≈ 8.78 µM)
MIC ([9]; Strain No. 14 Escherichia coli): 8 µg/mL (≈ 17.6 µM)
MIC ([9]; Strain No. 15 Escherichia coli): 4 µg/mL (≈ 8.78 µM)
MIC ([9]; Strain No. 16 Escherichia coli): 4 µg/mL (≈ 8.78 µM)
MIC ([9]; Strain No. 17 Escherichia coli): 4 µg/mL (≈ 8.78 µM)
MIC ([9]; Strain No. 19 Escherichia coli): 16 µg/mL (≈ 35.1 µM)
MIC ([9]; Strain No. 20 Escherichia coli): 4 µg/mL (≈ 8.78 µM)
MIC ([9]; Strain No. 23 Escherichia coli): 8 µg/mL (≈ 17.6 µM)
MIC ([9]; Strain No. 26 Escherichia coli): 4 µg/mL (≈ 8.78 µM)
MIC ([9]; Strain No. 30 Escherichia coli): 8 µg/mL (≈ 17.6 µM)
MIC ([10]; Strain No. 22 Klebsiella oxytoca, read-out: MIC, Concentration (tube broth dilution method)): 8 µg/mL (≈ 17.6 µM)
MIC, Concentration (tube broth dilution method) [10, 34]: 8.0 µg/mL (≈ 17.6 µM)
MIC [11, 35]: 4 µg/mL (≈ 8.78 µM)
MIC [11, 36]: 4 µg/mL (≈ 8.78 µM)
MIC [11, 37]: 2 µg/mL (≈ 4.39 µM)
MIC [11, 38]: 2 µg/mL (≈ 4.39 µM)
MIC [11, 39]: 2 µg/mL (≈ 4.39 µM)
MIC [11, 40]: 4 µg/mL (≈ 8.78 µM)
MIC [11, 41]: 8 µg/mL (≈ 17.6 µM)
MIC [11, 42]: 4 µg/mL (≈ 8.78 µM)
MIC [11, 43]: 16 µg/mL (≈ 35.1 µM)
MIC [11, 44]: 8 µg/mL (≈ 17.6 µM)
MIC [11, 45]: 4 µg/mL (≈ 8.78 µM)
MIC [12]: 4 µg/mL (≈ 8.78 µM)
SMILES: CO/N=C(\C(=O)N[C@@H]1C(=O)N2C(C(=O)O)=C(COC(C)=O)CS[C@H]12)c1csc(N)n1 [Cefotaxime]

Source: patent US10443082B2, “Concentration gradient test reagent kit and testing method for use in bacterial/fungal drug susceptibility testing” (XINTRUM PHARMACEUTICALS, LTD, priority 2014, dated 2019)
